Earlier results on one compound are cited in EP2085120A1, “The use of substances for the treatment of central or peripheral insulin receptor impairment and insulin resistance” (Merz Pharma GmbH & Co. KGaA, priority 2008, dated 2009).

The test system of the data set is cultured hippocampal and cortical neurons. The conditions noted are these: cultured hippocampal and cortical neurons pretreated with ADDLs or ADDL/glutamate; addition of an NMDA receptor antagonist.

Consider `CC12CC3CC(C)(C1)CC(N)(C3)C2` [memantine], for which the “ADDL and glutamate-induced decreased insulin sensitivity” value is reported as “reversible”.
